Data as given in patent publication US9725490B2, “ERAP1-derived peptide and use thereof” (TOKUSHIMA UNIVERSITY, priority 2011, dated 2017).

Experiments:
Type in all cases: cell-based, human
[1] = system: pS2, cyclin D1, c-Myc, SP-1, E2F1, PgR; assay: Quantitative RT-PCR of ERα target genes, MCF-7
[2] = system: ERα interaction with IGF-1Rβ, Shc; AKT and MAPK; assay: Non-genomic activation route, immunoblotting, KPL-3C
Method: FIG. 9-1 is a diagram illustrating that ERAP1-peptide treatment suppresses the non-genomic activation route. […] The cell lysate of the ERα-positive breast cancer cell lines shown in the figure was subjected to immunoblotting analysis using the antibodies shown in the figure. […] KPL-3C cells were treated with the ERAP1-peptide and/or E2 for 24 hours. Then the nuclear fraction was immunoprecipitated with anti-ERα antibody.
(§1) FIG. 9-2 is a diagram illustrating that ERAP1-peptide treatment suppresses the non-genomic activation route. […] The cells (C and D) or BT474 cells (E) Were treated with the ERAP1-peptide. Then, the phosphorylation levels of Akt (C). MAPK (C) and ERα (D and E) were evaluated with Western blotting. The relative phosphorylation levels were quantified by densitometry analysis, and the ratio to the value at 0 hour for non-treated cells was calculated.

[3] = system: pS2, cyclin D1, c-Myc, SP-1, E2F1, PgR; assay: Quantitative RT-PCR of ERα target genes, KPL-3C; conditions: 24 hours
PHB2/REA phosphorylation = assay: Phosphorylation of PHB2 bound to ERα, nuclear fraction; conditions: MCF-7, 5 μM peptide, 1 μM E2 24 hours
Method: FIG. 22 is a diagram illustrating that phosphorylation of PHB2 serine regulates the transcriptional activity of ERα. […] MCF-7 cells and HCC1395 cells were treated with 5 μM ERAP1-peptide. Then, immediately, the cells were stimulated with 1 μM E2 for 24 hours. Then, the nuclear fraction of each cell was immunoprecipitated with anti-ERα antibody. Furthermore, with respect to the obtained sample, immunoblotting analysis was performed using the antibodies shown in the figure and the phosphorylation antibody. […] COS-7 cells temporarily transfected with PHB2 (or PHB2 mutation vectors, S39A and S39G), ERα, ERE-luciferase vector, and each plasmid of pRL-TK as an internal standard were stimulated with 1 μM E2 for 48 hours.
MCF-7 cells and HCC1395 cells were treated with 5 μM ERAP1-peptide. Then, immediately the cells were stimulated with 1 μM E2 for 24 hours. Then, the nuclear fraction was isolated from the cells of each treatment. The nuclear fraction was precleaned at 4° C. for 3 hours using Normal IgG and rec-Protein G Sepharose 4B (Zymed, San Francisco, Calif., USA), and centrifuged, and then the supernatant was incubated in the presence of an anti-ERα antibody at 4° C. for 6 hours. Then, the supernatant was added with rec-Protein G Sepharose 4B and incubated at 4° C. for 1 hour to precipitate a antigen-antibody complex. […]

[4] = system: transcriptional activity of ERE-ERα; assay: ERE-luciferase reporter assay in KPL-3C cells; conditions: 10 nM E2 24 hours
Method: KPL-3C cells temporarily transfected with an ERE-luciferase reporter vector were treated with the ERAP1-peptide in the concentrations shown in the figure. Then, immediately, the cells were stimulated with 10 nM E2 for 24 hours. TAM indicates the tamoxifen treatment. […] KPL-3C cells were treated for 24 hours with the ERAP1-peptide and/or E2. Then, the nuclear fraction was immunoprecipitated with anti-ERα antibody or an anti-PHB2 antibody.

ERα phosphorylation = assay: E2-induced ERα phosphorylation, Western blotting, KPL-3C and BT-474; conditions: KPL-3C and BT-474 cells
Method: as §1

[5] = system: ZR-75-1, HCC1500, BT474, YMB-1, KPL-1, HBC4; assay: E2-dependent cell proliferation assay, other ERα/ERAP1-positive breast cancer cell lines; conditions: 10 μM, 10 nM E2 24 hours
Method: FIG. 7-2 is a diagram illustrating that ERAP1-peptide treatment suppresses ERα-dependent cell proliferation of breast cancer cell lines. […] Various ERα/ERAP1-positive breast cancer cell lines shown in the figure were treated with 10 μM of the ERAP1-peptide or the scramble peptide or 10 nM tamoxifen. Then, immediately, the cells were stimulated with 10 nM E2 for 24 hours.
(§2) Using Cell-Counting Kit-8 (CCK-8, Dojindo, Kumamoto, Japan), the cell proliferation assay was performed. The cells were harvested, and plated in 2×10^4 cells/well on a 48-well plate, and maintained at 37° C. in a humidified incubator. At the indicated time points, the cells were added with a CCK-8 solution diluted to 1:10, and incubated for 1 hour. Then, the absorbance at 450 nm was measured and the number of living cells in each well was calculated.

SK-BR-3 cells = assay: Proliferation of ERα negative SK-BR-3 cells; conditions: 24 hours and 48 hours
Method: FIG. 40 is a diagram illustrating the results of MTT assay by which proliferation suppression effect of the ERAP1-peptide in ERα negative breast cancer cell lines, SK-BR-3 cells was evaluated. SK-BR-3 cells were treated with the ERAP1-peptide (Peptide) or the ERAP1-scramble peptide (scrPeptide) for 24 hours or for 48 hours.
Cell proliferation assay was performed using Cell-Counting Kit-8 (CCK-8, Dojindo, Kumaamoto, Japan). The cells were harvested, and plated in 2×10^4 cells/well on a 48-well plate, and maintained in a humidified incubator (37° C.). 10 fold-diluted CCK-8 solution was added at indicated time points and the cells were incubated for 1 hour. Then, the absorbance at 450 nm was measured and the number of living cells was calculated.

MCF-10A cells = assay: Cell proliferation assay, normal epithelial MCF-10A; conditions: 24 hours
Method: FIG. 6-1 is a diagram illustrating that ERAP1-peptide treatment suppresses ERα-dependent cell proliferation of breast cancer cell lines. (A) and (B) show the results of MTT assay by which the inhibition effect of the ERAP1-peptide in the E2-dependent cell proliferation was evaluated. MCF-7 cells were treated with the ERAP1-peptide (A, B) the ERAP1-scramble peptide (B) or the ERAP1-mutant peptide (B).
as §2

## CSCC[C@H](NC(=O)[C@H](CCC(N)=O)NC(=O)[C@H](CCCNC(=N)N)NC(=O)[C@H](CCCNC(=N)N)NC(=O)[C@H](CCCNC(=N)N)NC(=O)[C@H](CCCNC(=N)N)NC(=O)[C@H](CCCNC(=N)N)NC(=O)[C@H](CCCNC(=N)N)NC(=O)[C@H](CCCNC(=N)N)NC(=O)[C@H](CCCNC(=N)N)NC(=O)[C@H](CCCNC(=N)N)NC(=O)[C@H](CCCNC(=N)N)NC(=O)[C@@H](N)CCCNC(=N)N)C(=O)N[C@@H](CC(C)C)C(=O)N[C@@H](CO)C(=O)N[C@@H](CC(=O)O)C(=O)N[C@@H](CC(C)C)C(=O)N[C@H](C(=O)N[C@@H](CC(C)C)C(=O)N[C@@H](CCC(N)=O)C(=O)N[C@@H](CC(C)C)C(=O)N[C@@H](CCCNC(=N)N)C(=O)N[C@@H](CCC(N)=O)C(=O)N[C@@H](CCCNC(=N)N)C(=O)O)[C@@H](C)O [ERAP1-peptide]
[1]; after 24 hours
  expression of ERα target genes: expression of any of the genes was remarkably suppressed
[1]; after addition of the peptide
  time at which significant expression suppression effect was first recognized: 6 h
[2]
  activations of AKT and MAPK: activations of AKT and MAPK were suppressed
  binding of ERα and Shc and of ERα and IGF-1Rβ: the binding of ERα and Shc and the binding of ERα and IGF-1Rβ were inhibited
[3]
  expression of ERα target genes: remarkable suppression for expression of all of these genes
PHB2/REA phosphorylation
  phosphorylation of PHB2/REA bound to ERα in the nucleus: phosphorylations of the tyrosine and serine residues in the binding-recognized PHB2/REA were recognized
[4]
  transcriptional activity of ERE-ERα: suppression for the transcriptional activity of ERE-ERα was recognized
ERα phosphorylation
  E2-dependent phosphorylation of ERα sites: E2-dependent phosphorylation in all of the sites was suppressed
[5]
  E2-dependent cell proliferation: remarkable E2-dependent proliferation suppression effect in all of the cells
SK-BR-3 cells
  cell proliferation: had suppression effect on the cell proliferation in dose-dependent manner both at 24 hours and 48 hours
MCF-10A cells
  cell proliferation: had no influence on the cell proliferation at all
